Measurements reported in patent publication US20250263396A1, “CRYSTALLINE FORMS OF 3-(5-(2-HYDROXY-2- METHYLPROPOXY)-6-METHYPYRAZIN-2-YL)-1H-INDOLE-7-CARBONITRILE” (NIDO BIOSCIENCES, INC., priority 2024, published 2025).

Columns and labels:
[1] = Wet granulation simulation experiments; type: physicochemical
Procedure: Water or ethanol was added drop wise to about 10 mg of Form P until the sample is wetted sufficiently. Wet sample was ground gently with in a mortar and a pestle. Post granulation sample was dried under ambient condition for 10 min.
Water or ethanol was added drop wise to about 10 mg of Form C until the sample is wetted sufficiently. Wet sample was ground gently with in a mortar and a pestle. Post granulation sample was dried under ambient condition for 5 min.

[2] = Hygroscopicity by dynamic vapor sorption (DVS); type: physicochemical
Procedure: Dynamic vapor sorption (DVS) was performed on an Intrinsic, Advantage or Adventure with an oven temperature of 25° C. using water as a solvent. The sample mass was about 5-10 mg using the following method: • Cycle: 40-0-95-0-40% RH • Stage Step: 10% • Equilibrium: 0.002 dm/dt (%/min) • Minimum dm/dt stability duration: 60 min • Maximum dm/dt stage time: 360 min.
Hygroscopicity of Form P was evaluated by dynamic vapor sorption (DVS) test at 25° C. Form P is non-hygroscopic at 80% RH; about 0.1% water uptake at 80% RH. Form P is slightly hygroscopic from 80% RH-95% RH: About 1.6% water uptake from 80% RH to 95% RH.

[3] = 10% relative humidity at 25° C.
[4] = 20% relative humidity at 25° C.
[5] = 30% relative humidity at 25° C.
[6] = 40% relative humidity at 25° C.
[7] = 50% relative humidity at 25° C.
[8] = 60% relative humidity at 25° C.
[9] = 70% relative humidity at 25° C.
[10] = 80% relative humidity at 25° C.
[11] = 90% relative humidity at 25° C.
[12] = 95% relative humidity at 25° C.

## Cc1nc(-c2c[nH]c3c(C#N)cccc23)cnc1OCC(C)(C)O [Form P, 3-(5-(2-hydroxy-2-methylpropoxy)-6-methylpyrazin-2-yl)-1H-indole-7-carbonitrile]
[1]; granulation solvent Ethanol
  Comments (crystallinity): No obvious change in crystallinity
  XRPD: Form P
[1]; granulation solvent Water
  Comments (crystallinity): No obvious change in crystallinity
  XRPD: Form P
[2]; 0% relative humidity at 25° C.
  1st desorp. Weight % change: 0.1%
  1st sorp. Weight % change: 0.1%
  2nd desorp. Weight % change: 0.0%
  2nd sorp. Weight % change: 0.0%
[2]; [3]
  1st desorp. Weight % change: 0.1%
  1st sorp. Weight % change: 0.1%
  2nd desorp. Weight % change: 0.0%
  2nd sorp. Weight % change: 0.0%
[2]; [4]
  1st desorp. Weight % change: 0.1%
  1st sorp. Weight % change: 0.1%
  2nd desorp. Weight % change: 0.0%
  2nd sorp. Weight % change: 0.0%
[2]; 25° C.
  Form after the DVS test: still in Form P
[2]; [5]
  1st desorp. Weight % change: 0.2%
  1st sorp. Weight % change: 0.1%
  2nd desorp. Weight % change: 0.1%
  2nd sorp. Weight % change: 0.0%
[2]; [6]
  1st desorp. Weight % change: 0.2%
  1st sorp. Weight % change: 0.1%
  2nd desorp. Weight % change: 0.1%
  2nd sorp. Weight % change: 0.0%
[2]; [7]
  1st sorp. Weight % change: 0.1%
  2nd desorp. Weight % change: 0.1%
[2]; [8]
  1st sorp. Weight % change: 0.1%
  2nd desorp. Weight % change: 0.2%
[2]; [9]
  1st sorp. Weight % change: 0.1%
  2nd desorp. Weight % change: 0.3%
[2]; [10]
  1st sorp. Weight % change: 0.2%
  2nd desorp. Weight % change: 0.4%
[2]; [11]
  1st sorp. Weight % change: 0.8%
  2nd desorp. Weight % change: 0.9%
[2]; [12]
  1st sorp. Weight % change: 1.8%
  2nd desorp. Weight % change: 1.8%
[2]; at 80% RH, 25° C.
  Hygroscopicity: non-hygroscopic (water uptake <0.2% = non-hygroscopic)
  water uptake: about 0.1%
[2]; from 80% RH to 95% RH, 25° C.
  water uptake: About 1.6%
[2]; from 80% RH-95% RH, 25° C.
  Hygroscopicity: slightly hygroscopic (water uptake ≥0.2% but <2% = slightly hygroscopic)
